Assay results taken from US6875777B2, “Compounds” (AstraZeneca AB, priority 1999, dated 2005).

What was measured:
[1] = MLM metabolic stability (% remaining); settings: for MLM 10000 % REM.: 10000 (unit not given); for MLM 100000 % REM.: 100000 (unit not given)
[2] = RLM metabolic stability (% remaining); settings: for RLM 10000 % REM.: 10000 (unit not given); for RLM 100000 % REM.: 100000 (unit not given)

Structure (SMILES)	MLM 10000 % REM. [1]	MLM 100000 % REM. [1]	RLM 10000 % REM. [2]	RLM 100000 % REM. [2]
CCN(CC)C(=O)c1ccc(N(c2cccc(O)c2)C2CCN(Cc3ccccc3)CC2)cc1 [Example 1]	10.4%	85.2%	4.333%	66.125%
CCN(CC)C(=O)c1ccc(N(c2cc(O)ccc2F)C2CCN(Cc3ccccc3)CC2)cc1 [Example 6, N,N-diethyl-4-[(2-fluoro-5-hydroxyphenyl)[1-(phenylmethyl)-4-piperidinyl]amino]-benzamide]	2%	69%	5.333%	81.333%
CCN(CC)C(=O)c1ccc(N(c2cccc(O)c2)C2CCN(Cc3ccoc3)CC2)cc1 [Example 15, N,N-diethyl-4-[[1-(3-furanylmethyl)-4-piperidinyl](3-hydroxyphenyl)amino]-benzamide]	3.5%	83.5%	8%	73%
CCN(CC)C(=O)c1ccc(N(c2cccc(O)c2)C2CCN(Cc3ccsc3)CC2)cc1 [Example 16, N,N-diethyl-4-[(3-hydroxyphenyl)[1-(3-thienylmethyl)-4-piperidinyl]amino]-benzamide]	5%	83%	1.5%	66.5%
CCN(CC)C(=O)c1ccc(N(c2cccc(O)c2)C2CCN(Cc3ccc(I)cc3)CC2)cc1 [Example 19, N,N-diethyl-4-[(3-hydroxyphenyl)[1-[(4-iodophenyl)methyl]-4-piperidinyl]amino]-benzamide]	30.667%	61.667%	0%	35.667%
CCN(CC)C(=O)c1ccc(N(c2cccc(O)c2)C2CCN(Cc3ccc(Br)cc3)CC2)cc1 [Example 20, N,N-diethyl-4-[[1-[(4-bromophenyl)methyl]-4-piperidinyl](3-hydroxyphenyl)amino]-benzamide]	30.5%	81.5%	4.5%	51.5%
CCN(CC)C(=O)c1ccc(N(c2cccc(O)c2)C2CCN(Cc3ccc(Cl)cc3)CC2)cc1 [Example 21, N,N-diethyl-4-[[1-[(4-chlorophenyl)methyl]-4-piperidinyl](3-hydroxyphenyl)amino]-benzamide]	16.333%	85%	2.333%	45%
CCN(CC)C(=O)c1ccc(N(c2cccc(O)c2)C2CCN(Cc3ccc(F)cc3)CC2)cc1 [Example 22, N,N-diethyl-4-[[1-[(4-fluorophenyl)methyl]-4-piperidinyl](3-hydroxyphenyl)amino]-benzamide]	8.5%	85%	17%	63%
CCN(CC)C(=O)c1ccc(N(c2cccc(O)c2)C2CCN(Cc3ccc(Cl)cc3Cl)CC2)cc1 [Example 23, 4-[[1-[(2,4-dichlorophenyl)methyl]-4-piperidinyl](3-hydroxyphenyl)amino]-N,N-diethyl-benzamide]	30.5%	93%	20.5%	75%
CCN(CC)C(=O)c1ccc(N(c2cccc(O)c2)C2CCN(Cc3cccc(F)c3)CC2)cc1 [Example 24, N,N-diethyl-4-[[1-[(3-fluorophenyl)methyl]-4-piperidinyl](3-hydroxyphenyl)amino]-benzamide]	3.5%	71.5%	3.5%	87.5%
CCN(CC)C(=O)c1ccc(N(c2cccc(O)c2)C2CCN(Cc3ccccc3F)CC2)cc1 [Example 25, N,N-diethyl-4-[[1-[(2-fluorophenyl)methyl]-4-piperidinyl](3-hydroxyphenyl)amino]-benzamide]	0%	71%	4%	71%
CCN(CC)C(=O)c1ccc(N(c2cccc(O)c2)C2CCN(Cc3ccc(C)cc3)CC2)cc1 [Example 26, N,N-diethyl-4-[(3-hydroxyphenyl)[1-[(4-methylphenyl)methyl]-4-piperidinyl]amino]-benzamide]	31.5%	86%	3.5%	63.5%
CCN(CC)C(=O)c1ccc(N(c2cccc(O)c2)C2CCN(Cc3ccco3)CC2)cc1 [Example 27, N,N-diethyl-4-[[1-(2-furanylmethyl)-4-piperidinyl](3-hydroxyphenyl)amino]-benzamide]	2%	65%	3.5%	54.5%
CCN(CC)C(=O)c1ccc(N(c2cccc(O)c2)C2CCN(Cc3cccs3)CC2)cc1 [Example 28, N,N-diethyl-4-[(3-hydroxyphenyl)[1-(2-thienylmethyl)-4-piperidinyl]amino]-benzamide]	1.5%	80%	1.5%	52%
CCN(CC)C(=O)c1ccc(N(c2cccc(O)c2)C2CCN(Cc3ncc[nH]3)CC2)cc1 [Example 29, N,N-diethyl-4-{3-hydroxy[1-(1H-imidazol-2-ylmethyl)-4-piperidinyl]anilino}benzamide]	6%	92.5%	36.5%	74.5%
CCN(CC)C(=O)c1ccc(N(c2cccc(O)c2)C2CCN(Cc3ccccn3)CC2)cc1 [Example 30, N,N-diethyl-4-{3-hydroxy[1-(2-pyridinylmethyl)-4-piperidinyl]anilino}benzamide]	26%	82%	31%	74%
